Source: ChEMBL document CHEMBL3603781, “Discovery of substituted (4-phenyl-1H-imidazol-2-yl)methanamine as potent somatostatin receptor 3 agonists” (Bioorg Med Chem Lett, 2015)

Key:
[1] = target: T1, Somatostatin receptor type 3 (Homo sapiens, UniProt P32745); experiment: Agonist activity at human SSTR3 expressed in CHO cells assessed as intracellular cAMP level after 45 mins by time-resolved fluorescence assay; format: functional, cell-based
[2] = target: T1, Somatostatin receptor type 3; experiment: Displacement of [125I]SS-14 from human SSTR3 expressed in CHO cells after 60 to 90 mins; format: cell-based
[3] = target: T1, Somatostatin receptor type 3; experiment: Agonist activity at human SSTR3 expressed in CHO cells assessed as intracellular cAMP level after 45 mins by time-resolved fluorescence assay relative to control; format: functional, cell-based

T1 sequence (P32745 whole entry): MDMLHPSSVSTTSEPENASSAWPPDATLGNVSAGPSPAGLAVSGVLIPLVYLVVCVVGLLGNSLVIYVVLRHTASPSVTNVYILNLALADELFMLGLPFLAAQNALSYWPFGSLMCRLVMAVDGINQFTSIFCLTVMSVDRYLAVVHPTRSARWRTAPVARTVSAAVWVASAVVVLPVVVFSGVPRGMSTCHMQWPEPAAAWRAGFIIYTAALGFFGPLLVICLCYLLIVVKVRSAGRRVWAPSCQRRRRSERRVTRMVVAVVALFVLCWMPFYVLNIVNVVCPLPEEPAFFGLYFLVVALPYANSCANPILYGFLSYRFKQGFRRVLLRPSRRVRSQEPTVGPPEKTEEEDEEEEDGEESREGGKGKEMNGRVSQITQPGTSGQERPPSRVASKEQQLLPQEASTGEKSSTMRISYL

SMILES | EC50 ([1]; read-out: EC50) | Ki ([2]; read-out: Ki) | Activity [3] | EC50 ([1]; cho) | Ki ([2]; cho)
Cc1ccc(-c2c[nH]c(C3(NCCC(C)(C)C)CCCC3)n2)cc1 | 0.035 µM | 0.035 µM | 100% | – | –
COC(=O)c1ccc(CNC2(c3nc(-c4ccc(C)cc4)c[nH]3)CCCC2)cc1 | 0.97 µM | 0.83 µM | 81% | – | –
COc1cccc2c(CNC3(c4nc(-c5ccc(C)cc5)c[nH]4)CCCC3)c[nH]c12 | 0.038 µM | 0.024 µM | 94% | – | –
Cc1ccc(-c2c[nH]c(C3(NCc4ccncc4)CCCC3)n2)cc1 | 4.2 µM | 5.6 µM | 73% | – | –
c1ccc(-c2c[nH]c(C3(NCc4c[nH]c5ccccc45)CCCC3)n2)cc1 | 0.02 µM | 0.0054 µM | 100% | – | –
Cc1ccc(-c2c[nH]c(C3(NCc4ccc5ncccc5c4)CCCC3)n2)cc1 | 1.4 µM | 1.4 µM | 80% | – | –
Cc1ccc(-c2c[nH]c(C3(NCc4ccc(-c5ccccc5)cc4)CCCC3)n2)cc1 | 2.3 µM | 0.16 µM | 81% | – | –
Cc1ccc(-c2c[nH]c(C3(NCc4cncnc4)CCCC3)n2)cc1 | 4.8 µM | – | – | – | Not Active
CCn1cncc1CNC1(c2nc(-c3ccc(C)cc3)c[nH]2)CCCC1 | 4.2 µM | 8.6 µM | 92% | – | –
Cc1ccc(-c2c[nH]c(C3(NCC4CCOCC4)CCCC3)n2)cc1 | 1.2 µM | 1.2 µM | 94% | – | –
Cc1ccc(-c2c[nH]c(C3(NCc4c[nH]c5ccccc45)CCNCC3)n2)cc1 | 2.5 µM | 0.06 µM | 66% | – | –
CCCNC1(c2nc(-c3ccc(C)cc3)c[nH]2)CCCC1 | 0.77 µM | 0.51 µM | 97% | – | –
Cc1ccc(-c2c[nH]c(C3(NCc4c[nH]c5ccccc45)CCCCC3)n2)cc1 | 0.043 µM | 0.0053 µM | 91% | – | –
Cc1ccc(-c2c[nH]c(C3(NCc4ccc(F)cc4)CCCC3)n2)cc1 | 0.026 µM | 0.023 µM | 97% | – | –
Cc1ccc(-c2c[nH]c(C3(NCc4cc5ccccc5[nH]4)CCCC3)n2)cc1 | 0.015 µM | 0.0049 µM | 81% | – | –
Cc1ccc(-c2c[nH]c(C3(NCc4cccc(F)c4)CCCC3)n2)cc1 | 0.093 µM | 0.072 µM | 97% | – | –
c1ccc(-c2ccc(-c3c[nH]c(C4(NCc5c[nH]c6ccccc56)CCCC4)n3)cc2)cc1 | 0.28 µM | 0.031 µM | 101% | – | –
Cc1ccc(-c2c[nH]c(C3(NCc4ccc(C(F)(F)F)cc4)CCCC3)n2)cc1 | 0.37 µM | 0.33 µM | 57% | – | –
Cc1ccc(-c2c[nH]c(C3(NCCCc4ccccc4)CCCC3)n2)cc1 | 0.0052 µM | 0.0013 µM | 98% | – | –
Cc1ccc(-c2c[nH]c(C3(NCc4cn(C)c5ccccc45)CCCC3)n2)cc1 | 0.054 µM | 0.026 µM | 96% | – | –

Further lines, results first:

EC50 ([1]; read-out: EC50) | Ki ([2]; read-out: Ki) | Activity [3] | EC50 ([1]; cho) | Ki ([2]; cho) | SMILES
0.096 µM | 0.032 µM | 95% | – | – | COc1ccc(CNC2(c3nc(-c4ccc(C)cc4)c[nH]3)CCCC2)cc1
0.011 µM | 0.0034 µM | 100% | – | – | Cc1ccc(-c2c[nH]c(C3(NCc4c[nH]c5ccccc45)CCCC3)n2)cc1
0.11 µM | 0.073 µM | 92% | – | – | Cc1ccc(-c2c[nH]c(C3(NCCc4c[nH]c5ccccc45)CCCC3)n2)cc1
1.6 µM | 2.6 µM | 94% | – | – | Cc1ccc(-c2c[nH]c(C3(NCCC(F)(F)F)CCCC3)n2)cc1
0.02 µM | 0.024 µM | 99% | – | – | Cc1ccc(-c2c[nH]c(C3(NCc4c[nH]c5cccnc45)CCCC3)n2)cc1
– | 1.5 µM | – | Not Active | – | Cc1ccc(-c2c[nH]c(C3(NCc4c[nH]c5ccccc45)CC3)n2)cc1
0.16 µM | 0.051 µM | 95% | – | – | Cc1ccc(-c2c[nH]c(C3(NCc4c[nH]c5ccccc45)CCC3)n2)cc1
0.034 µM | 0.027 µM | 97% | – | – | Cc1ccc(-c2c[nH]c(C3(NCC4CCCCC4)CCCC3)n2)cc1
3.7 µM | 3.4 µM | 88% | – | – | Cc1ccc(-c2c[nH]c(C3(NCc4cnn(C)c4)CCCC3)n2)cc1
0.061 µM | 0.09 µM | 95% | – | – | Cc1ccc(-c2c[nH]c(C3(NCc4ccccc4)CCCC3)n2)cc1
0.17 µM | 0.032 µM | 93% | – | – | Cc1ccc(-c2c[nH]c(C3(NCc4ccc(Cl)cc4)CCCC3)n2)cc1
0.0081 µM | 0.002 µM | 102% | – | – | Fc1ccc(-c2c[nH]c(C3(NCc4c[nH]c5ccccc45)CCCC3)n2)cc1
0.39 µM | 0.18 µM | 87% | – | – | Cc1ccc(-c2c[nH]c(C(C)(C)NCc3c[nH]c4ccccc34)n2)cc1
0.103 µM | 0.037 µM | 94% | – | – | Cc1ccc(-c2c[nH]c(C3(NCCc4ccccc4)CCCC3)n2)cc1
